The target of data set [1] is T1, human EAAT3 (Homo sapiens, UniProt P43005).
T1 construct: expressed in transfected cells
T1 sequence (P43005 1-524): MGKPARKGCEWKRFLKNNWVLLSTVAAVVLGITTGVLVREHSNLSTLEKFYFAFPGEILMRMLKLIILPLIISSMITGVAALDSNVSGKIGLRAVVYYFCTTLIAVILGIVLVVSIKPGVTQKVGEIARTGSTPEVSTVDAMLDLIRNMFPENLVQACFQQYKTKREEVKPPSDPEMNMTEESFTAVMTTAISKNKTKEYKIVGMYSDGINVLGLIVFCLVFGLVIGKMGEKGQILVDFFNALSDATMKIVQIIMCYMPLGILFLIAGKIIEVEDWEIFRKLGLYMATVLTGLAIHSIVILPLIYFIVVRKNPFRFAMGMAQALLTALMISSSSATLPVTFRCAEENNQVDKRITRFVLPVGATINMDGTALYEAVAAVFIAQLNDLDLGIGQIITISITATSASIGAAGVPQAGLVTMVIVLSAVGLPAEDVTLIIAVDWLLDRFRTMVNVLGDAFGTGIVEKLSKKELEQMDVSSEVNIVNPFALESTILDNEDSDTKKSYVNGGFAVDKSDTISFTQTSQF
Nature of the data set: FLIPR Membrane Potential (FMP) assay. The data set is classed as cell-based. Particulars: HEK-293 cells stably expressing human EAAT3; antagonist applied 15 min before L-glutamate at EC80; Kb by Cheng-Prusoff from IC50. On the procedure:
The FLIPR Membrane Potential (FMP) Assay
HEK-293 cells stably expressing human EAAT3 were seeded at 55 000 cells/well in growth medium (DMEM glutamate free (Invitrogen 11960-044), 1% Pen Strep (10 ml/l GIBCO BRL No 15140-023), 10% FCS non dialysed heat inactivated, 5 mg/l puromycin) in poly-D-lysine treated 96-well black microtiter plates with clear-bottom. After 24 h, the growth medium was removed and 100 μl/well of Krebs buffer (140 mM NaCl, 4.7 mM KCl, 2.5 mM CaCl2, 1.2 mM MgCl2, 11 mM HEPES, 10 mM D-glucose, pH=7.4) added. The cells were then loaded by adding 100 μl/well FMP assay dye (FLIPR Membrane Potential assay reagent, Molecular Devices). The 96-well plates were then incubated at 37° C. for 1 h. The depolarization of the cells will cause more dye to enter in the cells, where it will bind to intracellular proteins and lipids and cause an increase in the fluorescence signal. Antagonist potency at human EAAT3 was determined by using L-glutamate as agonist at a concentration which gives 80% of the maximum response. The antagonists were applied 15 min before the application of the agonist L-glutamate. The assays were performed at room temperature and measurements done by using a Fluorometric Imaging Plate Reader (FLIPR, Molecular Devices) and filter #2. Responses were measured as peak increase in fluorescence minus basal (i.e. fluorescence without addition of L-glutamate). Kb was determined using the Cheng-Prusoff equation Kb=IC50/[1+(A/EC50)], where IC50 is the concentration of the antagonist producing 50% inhibition, A is the concentration of the agonist against which the IC50 is being determined (at EC80) and EC50 is the concentration of the agonist producing 50% […].

Broadly, the Kb is the affinity of an antagonist, worked out from how it opposes an agonist. Higher therefore signals lower antagonist affinity. By melting point is commonly meant the temperature, or range, at which the solid turns liquid.

Compound `CCC(C)(C)NC(=O)c1cc(-c2ccc(C)c(F)c2)cc(-n2cnnn2)c1` [Example 5, 3-(3-Fluoro-4-methylphenyl)-N-(2-methylbutan-2-yl)-5-(tetrazol-1-yl)-benzamide] came in with a melting point of 161 °C. In data set [1], the Kb amounted to 250 nM.

In turn, `CCC(C)(C)NC(=O)c1cc(-c2ccc(F)c(C)c2)cc(-n2cnnn2)c1` [Example 6, 3-(4-Fluoro-3-methylphenyl)-N-(2-methylbutan-2-yl)-5-(tetrazol-1-yl)-benzamide] came in with a melting point of 120 °C. Moreover, in data set [1], the Kb was 410 nM.

In the case of `CCC(C)(C)NC(=O)c1cc(-c2ccc(OC)cc2)cc(-n2cnnn2)c1` [Example 7, 3-(4-Methoxyphenyl)-N-(2-methylbutan-2-yl)-5-(tetrazol-1-yl)-benzamide], the melting point amounted to 150 °C. In data set [1], this compound returned a Kb of 410 nM.

The compound `CCC(C)(C)NC(=O)c1cc(-c2ccc(C)cc2)cc(-n2nnnc2C(C)C)c1` [Example 10, N-(2-Methylbutan-2-yl)-3-(4-methylphenyl)-5-(5-propan-2-yltetrazol-1-yl)-benzamide] returned a melting point of 104 °C. For the same compound, the Kb in data set [1] was found to be 230 nM.

The compound `CCC(C)(C)NC(=O)c1cc(-c2ccc(Cl)cc2)cc(-n2cnnn2)c1` [Example 11, 3-(4-Chlorophenyl)-N-(2-methylbutan-2-yl)-5-(tetrazol-1-yl)-benzamide] registered a melting point of 206 °C. Also, the Kb in data set [1] was determined as 76 nM.

In turn, `CC(C)(C)NC(=O)c1cc(-c2ccc(Cl)cc2)cc(-n2cnnn2)c1` [Example 12, N-tert-Butyl-3-(4-chlorophenyl)-5-(tetrazol-1-yl)-benzamide] registered a melting point of 199 °C. In data set [1], this compound returned a Kb of 350 nM.

Consider `Cc1ccc(-c2cc(C(=O)NC(C)(C)C(F)(F)F)cc(-n3cnnn3)c2)cc1` [Example 13, 3-(4-Methylphenyl)-5-(tetrazol-1-yl)-N-(1,1,1-trifluoro-2-methylpropan-2-yl)-benzamide], for which the melting point was 190.5 °C. The compound further gave a Kb in data set [1] of 650 nM.

With `Cc1ccc(-c2cc(C(=O)NC(C)(C)CO)cc(-n3nnnc3C(C)C)c2)cc1` [Example 14, N-(1-Hydroxy-2-methylpropan-2-yl)-3-(4-methylphenyl)-5-(5-propan-2-yltetrazol-1-yl)-benzamide], the melting point stood at 75 °C. In data set [1], this compound registered a Kb of 650 nM.

As to `CC(C)(CO)NC(=O)c1cc(-c2ccc(Cl)cc2)cc(-n2cnnn2)c1` [Example 15, 3-(4-Chlorophenyl)-N-(1-hydroxy-2-methylpropan-2-yl)-5-(tetrazol-1-yl)-benzamide], the melting point amounted to 137 °C. In data set [1], the Kb was 800 nM.

Consider `CC(C)(NC(=O)c1cc(-c2ccc(F)cc2)cc(-n2cnnn2)c1)C(F)(F)F` [Example 18, 3-(4-Fluorophenyl)-5-(tetrazol-1-yl)-N-(1,1,1-trifluoro-2-methylpropan-2-yl)-benzamide], for which the melting point worked out at 175 °C. In data set [1], the Kb turned out to be 430 nM.

`Cc1ccc(-c2cc(C(=O)NC(C)(C)C(F)(F)F)cc(-n3nnnc3C(C)C)c2)cc1` [Example 19, 3-(4-Methylphenyl)-5-(5-propan-2-yltetrazol-1-yl)-N-(1,1,1-trifluoro-2-methylpropan-2-yl)-benzamide] displayed a melting point of 79 °C. Moreover, in data set [1], the Kb turned out to be 230 nM.

The compound `Cc1ccc(-c2cc(C(=O)NC(C)(C)C3CC3)cc(-n3nnnc3C(C)C)c2)cc1` [Example 20, N-(2-Cyclopropylpropan-2-yl)-3-(4-methylphenyl)-5-(5-propan-2-yltetrazol-1-yl)-benzamide] returned a melting point of 78 °C. The compound also showed a Kb in data set [1] of 310 nM.

`CC(C)(NC(=O)c1cc(-c2ccc(F)cc2)cc(-n2cnnn2)c1)C1CC1` [Example 21, N-(2-cyclopropylpropan-2-yl)-3-(4-fluorophenyl)-5-(tetrazol-1-yl)-benzamide] had a melting point of 193 °C. In data set [1], this compound showed a Kb of 960 nM.

`Cc1ccc(-c2cc(C(=O)NC(C)(C)C)cc(-n3nnnc3C)c2)cc1` [Example 23, N-tert-Butyl-3-(4-methylphenyl)-5-(5-methyltetrazol-1-yl)-benzamide] returned a melting point of 85 °C. The Kb in data set [1] came to 290 nM.

Take `Cc1ccc(-c2cc(C(=O)NC(C)(C)C(F)(F)F)cc(-n3nnnc3C3CC3)c2)cc1` [Example 25, 3-(5-Cyclopropyltetrazol-1-yl)-5-(4-methylphenyl)-N-(1,1,1-trifluoro-2-methylpropan-2-yl)-benzamide]: the melting point was 82 °C. For the same compound, the Kb in data set [1] turned out to be 270 nM.

With `CCc1nnnn1-c1cc(C(=O)NC(C)(C)C(F)(F)F)cc(-c2ccc(C)cc2)c1` [Example 26, 3-(5-Ethyltetrazol-1-yl)-5-(4-methylphenyl)-N-(1,1,1-trifluoro-2-methylpropan-2-yl)-benzamide], the melting point amounted to 78 °C. Also, the Kb in data set [1] was 300 nM.

`CCC(C)(C)NC(=O)c1cc(-c2ccc(C)cc2)cc(-n2nnnc2C2CC2)c1` [Example 27, 3-(5-Cyclopropyltetrazol-1-yl)-N-(2-methylbutan-2-yl)-5-(4-methylphenyl)-benzamide] had a melting point of 75 °C. The compound also displayed a Kb in data set [1] of 200 nM.

Turning to `CCc1nnnn1-c1cc(C(=O)NC(C)(C)CC)cc(-c2ccc(C)cc2)c1` [Example 28, 3-(5-Ethyltetrazol-1-yl)-N-(2-methylbutan-2-yl)-5-(4-methylphenyl)-benzamide], the melting point was determined as 71.5 °C. In data set [1], this compound yielded a Kb of 140 nM.

Compound `Cc1ccc(-c2cc(C(=O)NC(C)(C)C)cc(-n3nnnc3C3CC3)c2)cc1` [Example 29, N-tert-Butyl-3-(5-cyclopropyltetrazol-1-yl)-5-(4-methylphenyl)-benzamide] showed a melting point of 91 °C. In addition, the Kb in data set [1] was determined as 200 nM.

With `CCc1nnnn1-c1cc(C(=O)NC(C)(C)C)cc(-c2ccc(C)cc2)c1` [Example 30, N-tert-Butyl-3-(5-ethyltetrazol-1-yl)-5-(4-methylphenyl)-benzamide], the melting point worked out at 73 °C. This compound also gave a Kb in data set [1] of 210 nM.

In turn, `CC(C)(NC(=O)c1cc(-c2ccc(Cl)cc2)cc(-n2cnnn2)c1)C1CC1` [Example 31, 3-(4-Chlorophenyl)-N-(2-cyclopropylpropan-2-yl)-5-(tetrazol-1-yl)-benzamide] displayed a melting point of 191 °C. The Kb in data set [1] worked out at 210 nM.

In the case of `Cc1ccc(-c2cc(C(=O)NC(C)(C)C3CC3)cc(-n3nnnc3C3CC3)c2)cc1` [Example 35, N-(2-Cyclopropylpropan-2-yl)-3-(5-cyclopropyltetrazol-1-yl)-5-(4-methylphenyl)-benzamide], the melting point was determined as 74.5 °C. Moreover, the Kb in data set [1] amounted to 450 nM.

In the case of `CCc1nnnn1-c1cc(C(=O)NC(C)(C)C2CC2)cc(-c2ccc(C)cc2)c1` [Example 36, N-(2-Cyclopropylpropan-2-yl)-3-(5-ethyltetrazol-1-yl)-5-(4-methylphenyl)-benzamide], the melting point stood at 59.5 °C. Moreover, the Kb in data set [1] is 350 nM.

Take `CCC(C)(C)NC(=O)c1cc(-c2ccc(Cl)c(Cl)c2)cc(-n2cnnn2)c1` [Example 38, 3-(3,4-Dichlorophenyl)-N-(2-methylbutan-2-yl)-5-(tetrazol-1-yl)-benzamide]: the melting point was 206 °C. Besides, the Kb in data set [1] came to 700 nM.

`CCC(C)(C)NC(=O)c1cc(-c2ccc(F)c(F)c2)cc(-n2cnnn2)c1` [Example 39, 3-(3,4-Difluorophenyl)-N-(2-methylbutan-2-yl)-5-(tetrazol-1-yl)-benzamide] had a melting point of 189 °C. The Kb in data set [1] was determined as 200 nM.

`CCC(C)(C)NC(=O)c1cc(-c2ccc(F)c(Cl)c2)cc(-n2cnnn2)c1` [Example 40, 3-(3-Chloro-4-fluorophenyl)-N-(2-methylbutan-2-yl)-5-(tetrazol-1-yl)-benzamide] had a melting point of 205 °C. Further, in data set [1], the Kb amounted to 570 nM.

These data come from patent US10577332B2, “Tetrazole derivatives” (Hoffmann-La Roche Inc., priority 2015, dated 2020).
